Key:
Assay type in all cases: cell-based
wild-type Bcr-abl = molecular target: T1, wild-type Bcr-abl (Homo sapiens, UniProt P00519); assay: Antiproliferative effect on Ba/F3 cells expressing wild type Bcr-abl
T1 construct: expressed in transfected cells; host or cells: Ba/F3 (murine pro-B cells); the other entry of the earlier key: BCR (P11274, Breakpoint cluster region protein)
Procedure: (§1) Compounds selectively inhibiting the proliferation of these Bcr-abl transformed cells are tested for anti-proliferative activity on Ba/F3 cells expressing either wild type or the mutant forms of Bcr-abl.
(§2) 32D-p210 cells are plated into 96 well TC plates at a density of 15,000 cells per well. 50 μL of two fold serial dilutions of the test compound (Cmax is 40 μM) are added to each well (ST1571 is included as a positive control). After incubating the cells for 48 hours at 37° C., 5% CO2, 15 μL of MTT (Promega) is added to each well and the cells are incubated for an additional 5 hours. The optical density at 570 nm is quantified spectrophotometrically and IC50 values, the concentration of compound required for 50% inhibition, determined from a dose response curve.
(§3) Compounds of the invention are tested for their antiproliferative effect on Ba/F3 cells expressing either wild type or the mutant forms of Bcr-abl (G250E, E255V, T315I, F317L, M351T) that confers resistance or diminished sensitivity to STI571. The antiproliferative effect of these compounds on the mutant-Bcr-abl expressing cells and on the non transformed cells were tested at 10, 3.3, 1.1 and 0.37 μM as described above (in media lacking IL3). The IC50 values of the compounds lacking toxicity on the untransformed cells were determined from the dose response curves obtained as describe above.

G250E Bcr-abl = molecular target: T2, G250E Bcr-abl (Homo sapiens, UniProt P00519, G250E); assay: Antiproliferative effect on Ba/F3 cells expressing mutant Bcr-abl G250E
T2 construct: expressed in transfected cells; host or cells: Ba/F3 (murine pro-B cells); the other entry of the earlier key: BCR (P11274, Breakpoint cluster region protein)
Procedure: as §1, §2, §3

E255V Bcr-abl = molecular target: T3, E255V Bcr-abl (Homo sapiens, UniProt P00519, E255V); assay: Antiproliferative effect on Ba/F3 cells expressing mutant Bcr-abl E255V
T3 construct: expressed in transfected cells; host or cells: Ba/F3 (murine pro-B cells); the other entry of the earlier key: BCR (P11274, Breakpoint cluster region protein)
Procedure: as §1, §2, §3

T3151 Bcr-abl = molecular target: T4, T3151 Bcr-abl (Homo sapiens, UniProt P00519, T315I, cells depend on it); assay: Antiproliferative effect on Ba/F3 cells expressing mutant Bcr-abl T315I
T4 construct: fused on or other part: P11274 (Breakpoint cluster region protein)
Procedure: as §1, §2, §3

F317L Bcr-abl = molecular target: T5, F317L Bcr-abl (Homo sapiens, UniProt P00519, F317L); assay: Antiproliferative effect on Ba/F3 cells expressing mutant Bcr-abl F317L
T5 construct: expressed in transfected cells; host or cells: Ba/F3 (murine pro-B cells); the other entry of the earlier key: BCR (P11274, Breakpoint cluster region protein)
Procedure: as §1, §2, §3

M351T Bcr-abl = molecular target: T6, M351T Bcr-abl (Homo sapiens, UniProt P00519, M351T); assay: Antiproliferative effect on Ba/F3 cells expressing mutant Bcr-abl M351T
T6 construct: expressed in transfected cells; host or cells: Ba/F3 (murine pro-B cells); the other entry of the earlier key: BCR (P11274, Breakpoint cluster region protein)
Procedure: as §1, §2, §3

IC50 (wild-type Bcr-abl): 0.2 µM
IC50 (G250E Bcr-abl): 4.78 µM
IC50 (E255V Bcr-abl): 0.25 µM
IC50 (T3151 Bcr-abl): 5.28 µM
IC50 (F317L Bcr-abl): 4.45 µM
IC50 (M351T Bcr-abl): 0.97 µM
Structure (SMILES): NC(=O)c1ccc(-c2cc(-c3cc(Nc4ccc(OC(F)(F)F)cc4)ncn3)ccn2)cc1 [Compound 97]

Reference: patent US20050014753A1, “Novel compounds and compositions as protein kinase inhibitors” (IRM LLC, priority 2003, published 2005)
